# Measured values from publication PMC7156736, “Phase 1 study of the pan-HER inhibitor dacomitinib plus the MEK1/2 inhibitor PD-0325901 in patients with KRAS-mutation-positive colorectal, non-small-cell lung and pancreatic cancer” (British Journal of Cancer, 2020).
# Where two headings read alike, the source gives them in different places.
# Columns and labels:
# [1] = plasma pharmacokinetics in patients (HPLC–MS/MS, non-compartmental analysis); format: in vivo, human; details: for AUC(0-t): read-out: AUC0-12h PD-0325901, mean (CV%); for Cmax: read-out: Cmax PD-0325901, mean (CV%)
# Experimental: For pharmacokinetic analyses, serial blood samples were obtained from all patients prior to treatment administration on day 1, and 1, 2, 3, 4, 6, 8, 12, 24, 72 and 144 h after the first dose. On day 1 of cycle 2, blood samples were drawn before and 1, 2, 3, 4, 6, 8, 12 and 24 h after administration. Plasma samples were assayed using a validated high-performance liquid chromatography– tandem mass spectrometry method (HPLC–MS/MS). Briefly, dacomitinib and PD-0325901 were extracted from plasma by protein precipitation with a mixture of acetonitrile/methanol (1:1 v/v). Compounds were chromatographically separated using a Waters Xbridge BEH Phenyl column (50 ×2.1-mm ID, 5-μm particle size), and detection was performed using an API4000 tandem mass spectrometer equipped with a turbo ion spray interface, operating in the positive ion mode. Transitions from m/z 480 to 329 and m/z 489 to 255 were monitored for the detection of dacomitinib and PD-0325901, respectively. Stable isotope-labelled internal standards were used for the quantification. The lower and upper limits of quantification were, respectively, 0.5 and 50 ng/ml for dacomitinib, and 5 and 500 ng/ml for PD-0325901. Pharmacokinetic parameters were calculated in R using an in-house-developed validated script for non-compartmental pharmacokinetic analyses (version 3.6.0).[9]
# [2] = test system: patients with KRASm CRC, NSCLC or pancreatic cancer; format: in vivo; details: dacomitinib QD continuous, PD-0325901 BID 21 days on/7 days off
# Description: . The starting doses were based on previous data from single-agent Phase 1 studies with both compounds, taking into account the potential for synergistic toxicity. […]. Dose-escalation decisions were based on safety evaluation of all evaluable patients, performed after completion of the first treatment cycle. Patients were considered evaluable for the dose-determining part of this study if at least one cycle of study treatment was completed, with the minimum safety evaluation conducted, and at least one administration of both drugs received, or if dose-limiting toxicity (DLT) had occurred during the first cycle. If one out of three patients experienced a DLT, the number of patients treated at that dose level was expanded to a maximum of six. […] Patients were continuing study treatment until disease progression, unacceptable toxicity or investigator/patient decision to discontinue.
# Safety was monitored throughout the treatment by physical examination, laboratory assessments, electrocardiography, ophthalmic evaluation and collection of adverse events. Adverse events were recorded according to the Common Terminology Criteria for Adverse Events version 4.0. All adverse events that were possible, probable or definite related to study drug were considered as study/treatment related. […]
# [3] = test system: patients with advanced cancers; design: method as in PMID 20215549; details: BID, continuous schedule; cited from earlier work
# [4] = Dose-level 2: dacomitinib 15 mg QD + PD-0325901 3 mg BID, Cycle 1 Day 1, n = 6
# [5] = human, plasma, oral, 6 mg, All 6 mg doses, Cycle 1 Day 1, n = 14
# [6] = human, plasma, oral, 6 mg, All 6 mg doses, Cycle 2 Day 1 or last day of concomitant use, n = 6
# [7] = human, plasma, oral, Dose-level 1: dacomitinib 30 mg QD + PD-0325901 2 mg BID, Cycle 1 Day 1, n = 6
# [8] = human, plasma, oral, Dose-level 1: dacomitinib 30 mg QD + PD-0325901 2 mg BID, Cycle 2 Day 1, n = 6
# [9] = human, plasma, oral, Dose-level 2: dacomitinib 15 mg QD + PD-0325901 3 mg BID, Cycle 2 Day 1, n = 5
# [10] = human, plasma, oral, Dose-level 3: dacomitinib 15 mg QD + PD-0325901 4 mg BID, Cycle 1 Day 1, n = 2
# [11] = human, plasma, oral, Dose-level 3: dacomitinib 15 mg QD + PD-0325901 4 mg BID, Cycle 2 Day 1, n = 2
# [12] = human, plasma, oral, Dose-level 4: dacomitinib 15 mg QD + PD-0325901 5 mg BID, Cycle 1 Day 1, n = 3
# [13] = human, plasma, oral, Dose-level 4: dacomitinib 15 mg QD + PD-0325901 5 mg BID, Cycle 2 Day 1, n = 4
# [14] = human, plasma, oral, Dose-level 5: dacomitinib 15 mg QD + PD-0325901 6 mg BID, Cycle 1 Day 1, n = 8
# [15] = human, plasma, oral, Dose-level 5: dacomitinib 15 mg QD + PD-0325901 6 mg BID, Cycle 2 Day 1, n = 5
# [16] = human, plasma, oral, Dose-level 6: dacomitinib 30 mg (4/3) QD + PD-0325901 6 mg BID, Cycle 1 Day 1, n = 3
# [17] = human, plasma, oral, Dose-level 6: dacomitinib 30 mg (4/3) QD + PD-0325901 6 mg BID, last day of concomitant use of both drugs, n = 1
# [18] = human, plasma, oral, Dose-level 7: dacomitinib 30 mg (5/2) QD + PD-0325901 6 mg (5/2) BID, Cycle 1 Day 1, n = 3
# [19] = human, plasma, oral, Dose-level 7: dacomitinib 30 mg (5/2) QD + PD-0325901 6 mg (5/2) BID, last day of concomitant use of both drugs, n = 2
# [20] = human, plasma, oral, Dose-level 8: dacomitinib 30 mg (5/2) QD + PD-0325901 5 mg (5/2) BID, Cycle 1 Day 1, n = 4
# [21] = human, plasma, oral, Dose-level 8: dacomitinib 30 mg (5/2) QD + PD-0325901 5 mg (5/2) BID, last day of concomitant use of both drugs, n=2
# [22] = human, plasma, oral, Dose-level -1: dacomitinib 15 mg QD + PD-0325901 2 mg BID, Cycle 1 Day 1, n = 4
# [23] = human, plasma, oral, Dose-level -1: dacomitinib 15 mg QD + PD-0325901 2 mg BID, Cycle 2 Day 1, n = 3
# [24] = patients, combination treatment
smiles,measurement,setting,value
O=C(NOC[C@H](O)CO)c1ccc(F)c(F)c1Nc1ccc(I)cc1F [PD-0325901],"tmax PD-0325901, mean","[1]; All 6 mg doses, Cycle 1 Day 1, n = 14",1.5 h
same,"tmax PD-0325901, mean","[1]; All 6 mg doses, Cycle 2 Day 1 or last day of concomitant use, n = 6",2.2 h
same,"tmax PD-0325901, mean","[1]; Dose-level 1: dacomitinib 30 mg QD + PD-0325901 2 mg BID, Cycle 1 Day 1, n = 6",1.2 h
same,"tmax PD-0325901, mean","[1]; Dose-level 1: dacomitinib 30 mg QD + PD-0325901 2 mg BID, Cycle 2 Day 1, n = 6",1.5 h
same,"AUC0-12h PD-0325901, mean (CV%)",[1]; [4],273 (15) ng*h/ml
same,"tmax PD-0325901, mean",[1]; [4],1.2 h
same,"tmax PD-0325901, mean","[1]; Dose-level 2: dacomitinib 15 mg QD + PD-0325901 3 mg BID, Cycle 2 Day 1, n = 5",2.2 h
same,"tmax PD-0325901, mean","[1]; Dose-level 4: dacomitinib 15 mg QD + PD-0325901 5 mg BID, Cycle 1 Day 1, n = 3",1.4 h
same,"tmax PD-0325901, mean","[1]; Dose-level 5: dacomitinib 15 mg QD + PD-0325901 6 mg BID, Cycle 1 Day 1, n = 8",1.4 h
same,"tmax PD-0325901, mean","[1]; Dose-level 5: dacomitinib 15 mg QD + PD-0325901 6 mg BID, Cycle 2 Day 1, n = 5",1.2 h
same,"tmax PD-0325901, mean","[1]; Dose-level 6: dacomitinib 30 mg (4/3) QD + PD-0325901 6 mg BID, Cycle 1 Day 1, n = 3",1.3 h
same,"tmax PD-0325901, mean","[1]; Dose-level 7: dacomitinib 30 mg (5/2) QD + PD-0325901 6 mg (5/2) BID, Cycle 1 Day 1, n = 3",1.3 h
same,"tmax PD-0325901, mean","[1]; Dose-level 8: dacomitinib 30 mg (5/2) QD + PD-0325901 5 mg (5/2) BID, Cycle 1 Day 1, n = 4",1.5 h
same,"tmax PD-0325901, mean","[1]; Dose-level -1: dacomitinib 15 mg QD + PD-0325901 2 mg BID, Cycle 1 Day 1, n = 4",1.3 h
same,"tmax PD-0325901, mean","[1]; Dose-level -1: dacomitinib 15 mg QD + PD-0325901 2 mg BID, Cycle 2 Day 1, n = 3",1.1 h
same,plasma concentration versus target level (16.5 ng/ml),"[1]; PD-0325901 doses of 5 and 6 mg, during the entire dose interval",exceeded the target level
same,increase of exposure with dose,[1]; across dose levels,approximately dose-proportionally
same,AUC(0-t),[1]; [5],706 ng·h/mL
same,Cmax,[1]; [5],227 ng/mL
same,AUC(0-t),[1]; [6],954 ng·h/mL
same,Cmax,[1]; [6],217 ng/mL
same,AUC(0-t),[1]; [7],188 ng·h/mL
same,Cmax,[1]; [7],68.7 ng/mL
same,AUC(0-t),[1]; [8],210 ng·h/mL
same,Cmax,[1]; [8],58.3 ng/mL
same,Cmax,"[1]; human, plasma, oral, Dose-level 2: dacomitinib 15 mg QD + PD-0325901 3 mg BID, Cycle 1 Day 1, n = 6",85 ng/mL
same,AUC(0-t),[1]; [9],279 ng·h/mL
same,Cmax,[1]; [9],73.8 ng/mL
same,AUC(0-t),[1]; [10],452 ng·h/mL
same,Cmax,[1]; [10],106 ng/mL
same,AUC(0-t),[1]; [11],376 ng·h/mL
same,Cmax,[1]; [11],125 ng/mL
same,AUC(0-t),[1]; [12],552 ng·h/mL
same,Cmax,[1]; [12],179 ng/mL
same,AUC(0-t),[1]; [13],638 ng·h/mL
same,Cmax,[1]; [13],229 ng/mL
same,AUC(0-t),[1]; [14],822 ng·h/mL
same,Cmax,[1]; [14],262 ng/mL
same,AUC(0-t),[1]; [15],855 ng·h/mL
same,Cmax,[1]; [15],242 ng/mL
same,AUC(0-t),[1]; [16],635 ng·h/mL
same,Cmax,[1]; [16],192 ng/mL
same,AUC(0-t),[1]; [17],1340 ng·h/mL
same,Cmax,[1]; [17],254 ng/mL
same,AUC(0-t),[1]; [18],635 ng·h/mL
same,Cmax,[1]; [18],192 ng/mL
same,AUC(0-t),[1]; [19],406 ng·h/mL
same,Cmax,[1]; [19],56 ng/mL
same,Tmax,"[1]; human, plasma, oral, Dose-level 7: dacomitinib 30 mg (5/2) QD + PD-0325901 6 mg (5/2) BID, last day of concomitant use of both drugs, n = 2, read-out: tmax PD-0325901, mean",4.5 h
same,AUC(0-t),[1]; [20],463 ng·h/mL
same,Cmax,[1]; [20],134 ng/mL
same,AUC(0-t),[1]; [21],667 ng·h/mL
same,Cmax,[1]; [21],155 ng/mL
same,AUC(0-t),[1]; [22],160 ng·h/mL
same,Cmax,[1]; [22],43.7 ng/mL
same,AUC(0-t),[1]; [23],145 ng·h/mL
same,Cmax,[1]; [23],47.7 ng/mL
same,half-life,"[1]; human, plasma, oral, patients, combination treatment, read-out: half-life, range",5 to 9.9 h
same,accumulation after multiple doses (AUC and Cmax),[1]; [24],minimal accumulation
same,"half-life, mean",[1]; [24],7.7 h
same,recommended Phase 2 dose (RP2D) / established maximum dose level in the combination with continuous dacomitinib dosing,[2],6 mg
same,formal single-agent RP2D,[3],10 mg
